# Measurements taken from patent US12564547B2, “Compositions, formulations, and methods for skin treatment” (Oddity Labs, LLC, priority 2022, dated 2026).
# Tested on: human dermal fibroblasts
# Assay: Human dermal fibroblast cells (hDFC) proliferation, cell viability assay (CellTiter-Glo, manual cell counting)
# Format: cell-based
# Conditions: hDFCs proliferation; control is DMSO
row,Compound,Activity (Percent Increase Proliferation of hFDPCs (%))
1,"NC1CSCC1O (stereo not drawn) [VII-3, 4-aminothiolan-3-ol]",D (increased proliferation of hFDPCs equals to or larger than 8%)
2,"NC12CN3CN(CN(C3)C1)C2 [VII-4, 1,3,5-triazatricyclo[3.3.1.13,7]decan-7-amine]",D (increased proliferation of hFDPCs equals to or larger than 8%)
3,"CC1=NN(C=O)C(C)(C)C1 [VII-5, 3,5,5-trimethyl-4H-pyrazole-1-carbaldehyde]",D (increased proliferation of hFDPCs equals to or larger than 8%)
4,"CCOC(OCC)OCC [VII-6, diethoxymethoxyethane]",D (increased proliferation of hFDPCs equals to or larger than 8%)
5,"O[C@H]1CCNC[C@]12CCCNC2 [VII-7, (5S,6R)-2,8-diazaspiro[5.5]undecan-5-ol]",D (increased proliferation of hFDPCs equals to or larger than 8%)
6,"CC1CNCCN1 (stereo not drawn) [VII-8, 2-methylpiperazine]",D (increased proliferation of hFDPCs equals to or larger than 8%)
7,"CN1CCCNS1(=O)=O [VII-9, 2-methyl-1,2,6-thiadiazinane 1,1-dioxide]",D (increased proliferation of hFDPCs equals to or larger than 8%)
8,"CN(C)CN(C)C [VII-11, N,N,N′,N′-tetramethylmethanediamine]",D (increased proliferation of hFDPCs equals to or larger than 8%)
9,"Cc1c(Br)c([N+](=O)[O-])nn1CC(=O)N1CCCCCC1 [VII-12, 1-(azepan-1-yl)-2-(4-bromo-5-methyl-3-nitropyrazol-1-yl)ethanone]",C (increased proliferation of hFDPCs equals to or larger than 4% and less than 8%)
10,"COc1cc(OC)nc(OC)n1 [VII-14, 2,4,6-trimethoxypyrimidine]",B (increased proliferation of hFDPCs equals to or larger than 1% and less than 4%)
11,"CC(N)c1nnnn1C (stereo not drawn) [VII-15, 1-(1-methyltetrazol-5-yl)ethanamine]",D (increased proliferation of hFDPCs equals to or larger than 8%)
12,"CN(C)c1ccccc1CN1CCCCC1C(=O)O (stereo not drawn) [VII-16, 1-[[2-(dimethylamino)phenyl]methyl]piperidine-2-carboxylic acid]",D (increased proliferation of hFDPCs equals to or larger than 8%)
13,"CC1(C)CC(C(N)=O)C(C)(C)N1 (stereo not drawn) [VII-17, 2,2,5,5-tetramethylpyrrolidine-3-carboxamide]",D (increased proliferation of hFDPCs equals to or larger than 8%)
14,"NC(=O)C1CCCc2ccccc2N1 (stereo not drawn) [VII-18, 2,3,4,5-tetrahydro-1H-1-benzazepine-2-carboxamide]",D (increased proliferation of hFDPCs equals to or larger than 8%)
15,"CCNC(=O)CCSc1nc(C)cc(C)n1 [VII-19, 3-(4,6-dimethylpyrimidin-2-yl)sulfanyl-N-ethylpropanamide]",C (increased proliferation of hFDPCs equals to or larger than 4% and less than 8%)
16,"CC(=O)NC1CCN(Cc2ccccc2N(C)C)CC1 [VII-20, N-[1-[[2-(dimethylamino)phenyl]methyl]piperidin-4-yl]acetamide]",D (increased proliferation of hFDPCs equals to or larger than 8%)
17,"NC(=O)C1CCCCC1NC(=O)c1ccc(Cl)cn1 (stereo not drawn) [VII-21, N-(2-carbamoylcyclohexyl)-5-chloropyridine-2-carboxamide]",D (increased proliferation of hFDPCs equals to or larger than 8%)
18,"COc1ccccc1CN1CCNC(=O)C1CC(=O)N(C)C (stereo not drawn) [VII-22, 2-[1-[(2-methoxyphenyl)methyl]-3-oxopiperazin-2-yl]-N,N-dimethylacetamide]",D (increased proliferation of hFDPCs equals to or larger than 8%)

row,Compound,Activity (Percent Increase Proliferation of hFDPCs (%))
1,"CN(C)c1ccccc1CN1CCN(C(=O)N2CCOCC2)CC1 [VII-23, [4-[[2-(dimethylamino)phenyl]methyl]piperazin-1-yl]-morpholin-4-ylmethanone]",D (increased proliferation of hFDPCs equals to or larger than 8%)
2,"CCn1c(NN)nc2ccccc2c1=O [VII-24, 3-ethyl-2-hydrazinylquinazolin-4-one]",D (increased proliferation of hFDPCs equals to or larger than 8%)
3,"CCCNC(=O)CCNC(=O)C(C)Oc1ccc(OC)cc1 (stereo not drawn) [VII-25, 2-(4-methoxyphenoxy)-N-[3-oxo-3-(propylamino)propyl]propanamide]",B (increased proliferation of hFDPCs equals to or larger than 1% and less than 4%)
4,"CC(NC(=O)COc1ccc(CN(C)S(C)(=O)=O)cc1)c1ccccc1 (stereo not drawn) [VII-26, 2-[4-[[methyl(methylsulfonyl)amino]methyl]phenoxy]-N-(1-phenylethyl)acetamide]",D (increased proliferation of hFDPCs equals to or larger than 8%)
5,"CC(C)n1cnnc1 [VII-27, 4-propan-2-yl-1,2,4-triazole]",D (increased proliferation of hFDPCs equals to or larger than 8%)
6,"CC(=O)OC(Cn1ccnc1)c1ccccc1 (stereo not drawn) [VII-28, (2-imidazol-1-yl-1-phenylethyl) acetate]",A (increased proliferation of hFDPCs of less than 1%)
7,"CCC(N)Cn1ccnc1 (stereo not drawn) [VII-29, 1-imidazol-1-ylbutan-2-amine]",A (increased proliferation of hFDPCs of less than 1%)
8,"CCOC(Cn1ccnc1)OCC [VII-30, 1-(2,2-diethoxyethyl)imidazole]",D (increased proliferation of hFDPCs equals to or larger than 8%)
9,"COCCN(CCCc1ccccc1)C(=O)NC(C)Cn1ccnc1 (stereo not drawn) [VII-31, 3-(1-imidazol-1-ylpropan-2-yl)-1-(2-methoxyethyl)-1-(3-phenylpropyl)urea]",A (increased proliferation of hFDPCs of less than 1%)
10,"COc1ccc(CN2CCN(C(=O)CCn3ccnc3)CC2=O)cc1 [VII-32, 4-(3-imidazol-1-ylpropanoyl)-1-[(4-methoxyphenyl)methyl]piperazin-2-one]",A (increased proliferation of hFDPCs of less than 1%)
11,"COc1ccc(CN2CCN(C(=O)Cn3ccnc3)CC2)cc1 [VII-33, 2-imidazol-1-yl-1-[4-[(4-methoxyphenyl)methyl]piperazin-1-yl]ethanone]",C (increased proliferation of hFDPCs equals to or larger than 4% and less than 8%)
12,"COc1ccc(CCCc2nc3ccccc3[nH]2)cc1 [VII-34, 2-[3-(4-methoxyphenyl)propyl]-1H-benzimidazole]",D (increased proliferation of hFDPCs equals to or larger than 8%)
13,"O=C(CSc1nnc(SCC(=O)N2CCCC2)s1)N1CCCC1 [VII-35, 2-[[5-(2-oxo-2-pyrrolidin-1-ylethyl)sulfanyl-1,3,4-thiadiazol-2-yl]sulfanyl]-1-pyrrolidin-1-ylethanone]",C (increased proliferation of hFDPCs equals to or larger than 4% and less than 8%)
14,"O=C(CSc1nnnn1-c1ccc(O)cc1)N1CCCCC1 [VII-36, 2-[1-(4-hydroxyphenyl)tetrazol-5-yl]sulfanyl-1-piperidin-1-ylethanone]",D (increased proliferation of hFDPCs equals to or larger than 8%)
15,"Cn1nnnc1SCC(=O)N1CCCCC1 [VII-37, 2-(1-methyltetrazol-5-yl)sulfanyl-1-piperidin-1-ylethanone]",C (increased proliferation of hFDPCs equals to or larger than 4% and less than 8%)
16,"CCNC(=O)NC1CN(Cc2ccccc2N(C)C)C[C@@H]1OC (stereo partly drawn) [VII-38, 1-[(4S)-1-[[2-(dimethylamino)phenyl]methyl]-4-methoxypyrrolidin-3-yl]-3-ethylurea]",D (increased proliferation of hFDPCs equals to or larger than 8%)
17,oxetan-3-amine [VII-13],D (increased proliferation of hFDPCs equals to or larger than 8%)

# Tested on: Nrf2-ARE pathway
# Assay: KeratinoSens Nrf2-ARE reporter assay (ARE-luciferase activity)
# Format: cell-based
# Conditions: across a concentration range
# Protocol: The safety/toxicology profiles of a compound or salt of the present disclosure was evaluated via a series of in vitro genotoxicity assays, including the SOS-chromotest to determine bacterial genotoxicity, and the TK.6 micronucleus assay to determine chromosomal damage and forward mutations. Standard reactive oxygen species (ROS) and caspase 3/7 assay were conducted to determine general cellular toxicity. Moreover, a series of sensitization tests were conducted to predict any potential skin sensitivity. These include the direct peptide reactivity assay to evaluate haptenization, the KeratinoSens reporter assay to determine any potential sensitivity via the activation of a cytoprotective pathway, and an immunological assay using human immature monocyte-derived dendritic cells to evaluate any potential immunogenicity.
# The Nrf2-ARE pathway is a master regulator of cytoprotective responses to oxidative stress, and is an early indicator of skin sensitization. Nrf2 (nuclear factor erythroid 2-related factor) is a transcription factor that binds to antioxidant responsive elements (ARE). By fusing ARE to the light-producing luciferase gene, a KeratinoSens Nrf2-ARE reporter assay was constructed whereby luciferase signal is directly correlated to Nrf2-ARE pathway activation. […] FIG. 6B describes an in vitro dendritic cell sensitization test. Dendritic cell activation is widely-associated with downstream immunogenicity. CD14+ cells from human donor peripheral mononuclear cells were harvested and differentiated them into immature monocyte-derived DCs using granulocyte-macrophage colony-stimulating factor (GM-CSF) and interleukin-4 (IL-4), then treated with the lead compounds. Killed E. Coli and TNF-α were used as positive controls. FIG. 6C-FIG. 6E are example plots showing change in HLA-DR expression. Expression of CD80 (FIG. 6C), PDL-1 (FIG. 6D), and CD141 (FIG. 6E) as quantified via mean fluorescence intensity (MFI) following dosing with example compounds. […] In FIG. 6A-FIG. 6E, data represents mean±s.d. and representative of at least 2 experimental replicates.
row,Compound,skin sensitizing potential (Nrf2-ARE pathway activation)
1,"COc1ccc(CCCc2nc3ccccc3[nH]2)cc1 [VII-34, 2-[3-(4-methoxyphenyl)propyl]-1H-benzimidazole]",did not exhibit apparent Nrf2-ARE pathway activation
